Measured values from US20230055582A1, “COMPOSITIONS AND METHODS FOR TREATMENT OF INFLAMMATORY CONDITIONS AND DISEASES OF THE SKIN” (priority 2020, published 2023).
Values joined by “and” are separate entries in the source; they are usually repeats but may differ in a detail not shown here. Equal entries are not always repeated.

Experiments:
[1] = tested on: IL-6; test: IL-6 in medium of poly I:C treated HaCaT cells, multiplex immunoassay; type: cell-based, human; conditions: 24 h
Description: (§1) CBD was purchased from Sigma Israel. […] PEA was in powder form.
(§2) Samples were frozen and shipped on dry ice.
(§3) Analysis of cytokine content. Samples were shipped to Eve Technologies, Calgary (Canada) for analysis. Samples were analyzed using Human Focused 13-Plex Discovery Assay, a Multiplex immunoassay with fluorometric detection. Preliminary tests were conducted in order to determine samples dilution. The cytokines measured were granulocyte-macrophage colony-stimulating factor (GM-CSF), interferon gamma (IFNy), interleukin 1 beta (IL-1B), IL-2, IL-4, IL-5, IL-6, IL-8, IL-10, IL-12, IL-13, monocyte chemoattractant protein-1 (MCP-1) and tumor necrosis factor alpha (TNF-α).

[2] = tested on: HaCaT cells; test: Cell viability, crystal violet assay, poly I:C treated HaCaT cells; conditions: for Cell viability: 24 h; for Cell viability increase: vs poly I:C alone
Description: (§4) Cell culture. The human keratinocyte cell line HaCaT was a kind gift from Prof. Joseph Kost (Department of Chemical Engineering, Ben-Gurion University of the Negev, Israel). Cells were cultured in Dulbecco's Modified Eagle Medium (DMEM) (Biological Industries, Kibbutz Beit-Haemek, Israel) supplemented with 1% antibiotic-antimycotic (Tivan Biotech, Kfar-Saba, Israel), 1mM sodium pyruvate, and 10% fetal bovine serum (FBS) (Biological Industries), and were maintained in an incubator with 5% CO2 at 37° C.
(§5) CBD was purchased from Sigma Israel. […] PEA was in powder form. A 30 mM stock solution was made by dissolving PEA in dimethyl sulfoxide (DMSO). […] All stocks were filtered using a 0.2 μm filter before use and further diluted to the required concentration in cell medium. Vehicle (control) solutions contained the corresponding amount of DMSO (0.007%).
90,000 cells/well were plated on 12-well plates and allowed to attach at 37° C. for 24 hours. Subsequently, the wells were washed with phosphate-buffered saline (PBS) and the medium was replaced with a medium containing either vehicle (control) or poly I:C. […] The wells were then incubated for further 24 h and 50μL samples were drawn for analysis of cytokines. Samples were frozen and shipped on dry ice.
Cell viability assay. Cell viability was measured using a crystal violet assay. 90,000 cells/well were plated on 12-well plates and allowed to attach at 37° C. for 24 hours. […] 24 hours later medium was aspirated, and cells were washed twice with PBS. 500 μL of crystal violet staining solution (0.5% (w/v) crystal violet powder, 20% methanol) was added to each well, followed by incubation for 30 min at room temperature. The staining solution was discarded, the plates were washed 5 times with distilled water and dried, and 500 μL of 10% acetic acid (v/v) was added to each well. Absorbance was measured at 595 nm.

[3] = tested on: HaCaT cells; test: Toxicity on HaCaT cells, qualitative light-microscope assessment after 50 hours; type: cell-based, human
Description: (§6) CBD, PEA and DB. CBD was purchased from Sigma Israel. […] CBD was 3.18 mM solution in ethanol. DB was in pure liquid form. PEA was in powder form.
Toxicity. HaCaT cells were incubated in 12 wells plates until 60-70% confluency was achieved. Subsequently, the cells were washed and incubated with medium containing PEA, DB or CBD. After 50 hours of incubation, the wells were observed under a light microscope and toxicity of the active compounds was assessed qualitatively by comparing the treated cells to controls incubated with vehicle. As concluded, under the conditions tested, PEA can be safely used in concentration of up to 50 μM, DB is non-toxic at concentrations of up to 0.01%, and CBD is non-toxic at concentration of up to 15 μM.

[4] = tested on: TNF-α; test: TNF-α in medium of poly I:C treated HaCaT cells, multiplex immunoassay; type: cell-based, human; conditions: 24 h
Description: as §6
(§7) Procedure and administration of active compounds. […] Samples were frozen and shipped on dry ice.
as §3, with “(TNF-α). Results were calculated only for GM-CSF, IL-6, IL-8, MCP-1 and TNF-α.” for “(TNF-α).”

[5] = tested on: MCP-1; test: MCP-1 in medium of poly I:C treated HaCaT cells, multiplex immunoassay; type: cell-based, human; conditions: for MCP-1: 24 h
Description: as §6, §7
as §3, with “(TNF-α). Results were calculated only for GM-CSF, IL-6, IL-8, MCP-1 and TNF-α.” for “(TNF-α).”

[6] = tested on: GM-CSF; test: GM-CSF in medium of poly I:C treated HaCaT cells, multiplex immunoassay; type: cell-based, human; conditions: 24 h
Description: as §6, §7
as §3, with “(TNF-α). Results were calculated only for GM-CSF, IL-6, IL-8, MCP-1 and TNF-α.” for “(TNF-α).”

[7] = tested on: IL-8; test: IL-8 in medium of poly I:C treated HaCaT cells, multiplex immunoassay; type: cell-based, human; conditions: 24 h
Description: as §1, §2, §3

[8] = tested on: GM-CSF, IL-6, IL-8, MCP-1 and TNF-α; test: Five inflammatory cytokines taken together, poly I:C treated HaCaT cells; type: cell-based, human; conditions: higher dose (10 μM) with poly I:C 100 μg/mL
Description: as §4, §5
90,000 cells/well were plated on 12-well plates and allowed to attach at 37° C. for 24 hours. […]
Analysis of cytokine content. […] Samples were analyzed using Human Focused 13-Plex Discovery Assay, a Multiplex immunoassay with fluorometric detection. […] The cytokines measured were granulocyte-macrophage colony-stimulating factor (GM-CSF), interferon gamma (IFNy), interleukin 1 beta (IL-1B), IL-2, IL-4, IL-5, IL-6, IL-8, IL-10, IL-12, IL-13, monocyte chemoattractant protein-1 (MCP-1) and tumor necrosis factor alpha (TNF-α).

[9] = PEA 0.2 μM with poly I:C 100 μg/mL
[10] = PEA 0.2 μM with poly I:C 100 μg/mL, percent of poly I:C alone
[11] = PEA 2 μM with poly I:C 100 μg/mL
[12] = PEA 2 μM with poly I:C 100 μg/mL, percent of poly I:C alone
[13] = CBD 3 μM with poly I:C 100 μg/mL
[14] = CBD 3 μM with poly I:C 100 μg/mL, percent of poly I:C alone
[15] = CBD 10 μM with poly I:C 100 μg/mL
[16] = CBD 10 μM with poly I:C 100 μg/mL, percent of poly I:C alone
[17] = poly I:C 20 μg/mL, percent of control values
[18] = poly I:C 50 μg/mL, percent of control values
[19] = poly I:C 100 μg/mL, percent of control values

## CCCCCCCCCCCCCCCC(=O)NCCO [PEA, palmitoylethanolamide]
[1]; [9]
  IL-6: 27.43 pg/mL
[1]; [10]
  IL-6: 78.08%
[1]; [11]
  IL-6: 27.23 pg/mL
[1]; [12]
  IL-6: 77.49%
[2]; [9]
  Cell viability: 1.443 O.D.
[2]; [11]
  Cell viability: 1.413 O.D.
[2]; human, 0.2 μM
  Cell viability: 114.66%
[2]; human, 2 μM
  Cell viability: 112.28%
[3]; human, 50 h
  non-toxic (safely used) concentration: up to 50 μM
[4]; [9]
  TNF-α: 4.673 pg/mL
[4]; [10]
  TNF-α: 72.23%
[4]; [11]
  TNF-α: 4.470 pg/mL
[4]; [12]
  TNF-α: 69.09%
[5]; [9]
  MCP-1: 1345.28 pg/mL
[5]; [10]
  MCP-1: 77.88%
[5]; [11]
  MCP-1: 1554.20 pg/mL
[5]; [12]
  MCP-1: 89.98%
[6]; [9]
  GM-CSF: 60.36 pg/mL
[6]; [10]
  GM-CSF: 78.42%
[6]; [11]
  GM-CSF: 57.54 pg/mL
[6]; [12]
  GM-CSF: 74.75%
[7]; [9]
  IL-8: 810.38 pg/mL
[7]; [10]
  IL-8: 88.23%
[7]; [11]
  IL-8: 773.38 pg/mL and 773.27 pg/mL
[7]; [12]
  IL-8: 84.19%

## C=C(C)[C@@H]1CCC(C)=C[C@H]1c1c(O)cc(CCCCC)cc1O [CBD, 2-[(1R,6R)-6-isopropenyl-3-methylcyclohex-2-en-1-yl]-5-pentylbenzene-1,3-diol]
[1]; [13]
  IL-6: 18.95 pg/mL
[1]; [14]
  IL-6: 53.94% and 53.04%
[1]; [15]
  IL-6: 12.15 pg/mL
[1]; [16]
  IL-6: 34.57%
[2]; 3 μM with poly I:C 100 μg/mL
  Cell viability increase: 5.5%
[2]; 10 μM with poly I:C 100 μg/mL
  Cell viability increase: 15.3%
[2]; [13]
  Cell viability: 1.328 O.D.
[2]; [14]
  Cell viability: 105.50%
[2]; [15]
  Cell viability: 1.451 O.D.
[2]; [16]
  Cell viability: 115.29%
[3]; 5 μM, 50 hours
  Toxicity: non toxic
[3]; 15 μM, 50 hours
  Toxicity: non toxic
[3]; 45 μM, 50 hours
  Toxicity: very toxic
[3]; HaCaT cells, 50 hours, under the conditions tested
  non-toxic (safely used) concentration: up to 15 μM
[4]; [13]
  TNF-α: 3.277 pg/mL
[4]; [14]
  TNF-α: 50.64%
[4]; [15]
  TNF-α: 1.517 pg/mL
[4]; [16]
  TNF-α: 23.44%
[8]
  All cytokines measured reduced: 60-80%
[5]; [13]
  MCP-1: 956.97 pg/mL and 945.97 pg/mL
[5]; [14]
  MCP-1: 54.77%
[5]; [15]
  MCP-1: 272.60 pg/mL
[5]; [16]
  MCP-1: 15.78%
[6]; [13]
  GM-CSF: 56.44 pg/mL
[6]; [14]
  GM-CSF: 73.32%
[6]; [15]
  GM-CSF: 49.55 pg/mL
[6]; [16]
  GM-CSF: 64.37%
[7]; [13]
  IL-8: 643.44 pg/mL
[7]; [14]
  IL-8: 70.05%
[7]; [15]
  IL-8: 335.44 pg/mL
[7]; [16]
  IL-8: 36.52%

## polyinosinic:polycytidylic acid [Poly I:C]
[1]; poly I:C 20 μg/mL alone
  IL-6: 14.07 pg/mL
[1]; [17]
  IL-6: 523.57%
[1]; poly I:C 50 μg/mL alone
  IL-6: 19.50 pg/mL
[1]; [18]
  IL-6: 725.81%
[1]; poly I:C 100 μg/mL alone
  IL-6: 35.14 pg/mL
[1]; [19]
  IL-6: 1307.82%
[2]; poly I:C 20 μg/mL alone
  Cell viability: 1.827 O.D.
[2]; poly I:C 50 μg/mL alone
  Cell viability: 1.714 O.D.
[2]; poly I:C 100 μg/mL alone
  Cell viability: 1.259 O.D.
[4]; poly I:C 20 μg/mL alone
  TNF-α: 2.74 pg/mL
[4]; poly I:C 20 μg/mL, percent of control values, control below the standard curve
  TNF-α: 846.39%
[4]; poly I:C 50 μg/mL alone
  TNF-α: 3.81 pg/mL
[4]; poly I:C 50 μg/mL, percent of control values, control below the standard curve
  TNF-α: 1179.38%
[4]; poly I:C 100 μg/mL alone
  TNF-α: 6.47 pg/mL and 6.470 pg/mL
[4]; poly I:C 100 μg/mL, percent of control values, control below the standard curve
  TNF-α: 2001.03%
[5]; poly I:C 20 μg/mL alone
  MCP-1: 369.54 pg/mL
[5]; [17]
  MCP-1: 704.95%
[5]; poly I:C 50 μg/mL alone
  MCP-1: 711.76 pg/mL
[5]; [18]
  MCP-1: 1357.80%
[5]; poly I:C 100 μg/mL alone
  MCP-1: 1727.32 pg/mL
[5]; [19]
  MCP-1: 3295.15%
[5]; poly I:C 100 μg/mL, vs control
  increase in cytokine concentration, MCP-1: up to 33 fold
[6]; poly I:C 20 μg/mL alone
  GM-CSF: 53.09 pg/mL
[6]; [17]
  GM-CSF: 266.74%
[6]; poly I:C 50 μg/mL alone
  GM-CSF: 62.68 pg/mL
[6]; [18]
  GM-CSF: 314.94%
[6]; poly I:C 100 μg/mL alone
  GM-CSF: 76.98 pg/mL
[6]; [19]
  GM-CSF: 386.75%
[7]; poly I:C 20 μg/mL alone
  IL-8: 657.01 pg/mL
[7]; [17]
  IL-8: 330.64%
[7]; poly I:C 50 μg/mL alone
  IL-8: 729.48 pg/mL
[7]; [18]
  IL-8: 367.11%
[7]; poly I:C 100 μg/mL alone
  IL-8: 918.50 pg/mL
[7]; [19]
  IL-8: 462.24%
